According to US10227331B2 (priority 2015, dated 2019):
pIC50: −log10 of the molar value.

How the values were obtained:
[1] = biological target: IMP-1 (Serratia marcescens, UniProt P52699); experiment: biochemical; assay type: biochemical; conditions: CCF2-FA substrate, 2 hours at 25° C; read-out: IMP-1 IC50
In short: (§1)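 Inhibitor was mixed with the metallo-β-lactamase and CCF2-FA. After 2 hours at 25° C, fluorescence of the coumarin–fluorescein cephalosporin substrate was read. IC50 was calculated with a 4-parameter fit.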

[2] = biological target: NDM-1 (Klebsiella pneumoniae, UniProt C7C422); experiment: biochemical; assay type: biochemical; conditions: CCF2-FA substrate, 2 hours at 25° C; read-out: NDM-1 IC50
Chain of NDM-1 (C7C422 whole entry, looked up, species assumed): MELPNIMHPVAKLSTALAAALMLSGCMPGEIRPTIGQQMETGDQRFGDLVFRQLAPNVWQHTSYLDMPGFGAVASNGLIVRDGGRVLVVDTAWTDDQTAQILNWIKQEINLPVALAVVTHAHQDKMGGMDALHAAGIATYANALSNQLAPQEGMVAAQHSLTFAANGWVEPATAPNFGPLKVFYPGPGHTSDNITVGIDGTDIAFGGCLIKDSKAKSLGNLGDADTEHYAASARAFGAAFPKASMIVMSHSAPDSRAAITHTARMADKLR
In short: as §1

[3] = tested on: Escherichia coli expressing NDM-1 (CLB30005, CLB30016); assay type: cell-based; conditions: with imipenem 1 μg/ml, 95% inhibition of bacterial growth; for Escherichia coli MITC95: NDM-1 (CLB30016)
In short: (§2)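 Colonies from overnight 35 °C blood-agar cultures were suspended in saline, diluted 1:100 into 1.1× CAMHB and exposed to test compound with or without imipenem at 1 μg/ml. After 22–24 h at 35 °C, absorbance was read to find the concentration restoring imipenem susceptibility.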

[4] = tested on: Klebsiella pneumoniae expressing VIM-1 (IHMA599644); assay type: cell-based; conditions: with imipenem 1 μg/ml, 95% inhibition of bacterial growth; for Klebsiella pneumoniae MITC95: VIM-1 (IHMA599644)
In short: as §2

[5] = tested on: Serratia marcescens expressing IMP-1 (CL5741); assay type: cell-based; conditions: with imipenem 1 μg/ml, 95% inhibition of bacterial growth; for Serratia marcescens MITC95: IMP-1 (CL5741)
In short: as §2

[6] = tested on: P. aeruginosa expressing IMP-1, efflux− (MB9799); experiment: Efflux: concentration of MBL inhibitor which restores susceptibility to imipenem; assay type: cell-based, Pseudomonas aeruginosa; conditions: imipenem at 2 μg/mL, in the presence of a class A, C, D serine β-lactamase inhibitor closely related to relebactam
Text: (§3) The strain background is Pseudomonas aeruginosa PAO1.

[7] = biological target: VIM-1 (Pseudomonas aeruginosa (strain ATCC 15692 / DSM 22644 / CIP 104116 / JCM 14847 / LMG 12228 / 1C / PRS 101 / PAO1), UniProt A0A0F7KYQ8); experiment: biochemical; conditions: CCF2-FA substrate, 2 hours at 25° C
In short: as §1

[8] = tested on: P. aeruginosa expressing IMP-1, efflux+ (MB9798); assay type: cell-based, Pseudomonas aeruginosa; conditions: for P. aeruginosa expressing IMP-1, efflux+ (MB9798) MITC95: imipenem at 2 μg/mL, in the presence of a class A, C, D serine β-lactamase inhibitor closely related to relebactam; for Efflux ratio: ratio MITC95 PA_9798/MITC95 PA_9799
Text: as §3

Chain of IMP-1 (P52699 whole entry, looked up, species assumed): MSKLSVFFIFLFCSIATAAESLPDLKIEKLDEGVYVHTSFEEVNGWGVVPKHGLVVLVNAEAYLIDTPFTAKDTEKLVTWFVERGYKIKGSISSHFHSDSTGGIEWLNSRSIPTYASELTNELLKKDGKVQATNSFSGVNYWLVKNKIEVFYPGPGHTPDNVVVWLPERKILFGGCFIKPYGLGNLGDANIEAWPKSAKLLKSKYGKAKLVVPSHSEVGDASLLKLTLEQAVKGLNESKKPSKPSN

Row | Structure (SMILES) | pIC50 [1] | pIC50 [2] | Escherichia coli expressing NDM-1 (CLB30016) MITC95 [3] [µM] | Klebsiella pneumoniae expressing VIM-1 (IHMA599644) MITC95 [4] [µM] | Serratia marcescens expressing IMP-1 (CL5741) MITC95 [5] [µM] | P. aeruginosa expressing IMP-1, efflux− (MB9799) MITC95 [6] [µM] | pIC50 [7] | P. aeruginosa expressing IMP-1, efflux+ (MB9798) MITC95 [8] [µM] | Efflux ratio [8] | Escherichia coli MITC95 [3] [µM] | Klebsiella pneumoniae MITC95 [4] [µM] | Serratia marcescens MITC95 [5] [µM]
1 | Nc1nc2c(-c3ccc(S(=O)(=O)C4CNC4)c(S(N)(=O)=O)c3-c3nn[nH]n3)ccc(C(F)(F)F)c2s1 [Example 34, 3-(2-amino-7-(trifluoromethyl)benzo[d]thiazol-4-yl)-6-(azetidin-3-ylsulfonyl)-2-(2H-tetrazol-5-yl)benzenesulfonamide] | 9.64 | 10.15 | 0.7813 | 1.563 | 0.7813 | 0.7813 | 9.76 | 6.25 | 8.00 | – | – | –
2 | N#Cc1ccc(-c2ccc(S(=O)(=O)CCN)c(S(N)(=O)=O)c2-c2nnn[nH]2)c2[nH]c(N)nc12 [Example 295, 3-(2-amino-4-cyano-1H-benzo[d]imidazol-7-yl)-6-((2-aminoethyl)sulfonyl)-2-(1H-tetrazol-5-yl)benzenesulfonamide] | 8.91 | 9.94 | – | – | – | 1.563 | 9.98 | 1.563 | 1.00 | 1.563 | 3.125 | 3.125
3 | Nc1nc2c(-c3ccc(S(=O)(=O)[C@H]4CCNC4)c(S(N)(=O)=O)c3-c3nn[nH]n3)cccc2s1 [Example 184, 3-(2-aminobenzo[d]thiazol-4-yl)-6-((S)-pyrrolidin-3-ylsulfonyl)-2-(2H-tetrazol-5-yl)benzenesulfonamide] | 9.61 | 10.03 | 0.7813 | 1.563 | 0.7813 | 0.7813 | 9.58 | 0.7813 | 1.00 | – | – | –
4 | CNc1nc2c(-c3ccc(S(=O)(=O)CCN)c(S(N)(=O)=O)c3-c3nn[nH]n3)cccc2s1 [Example 90, 6-(2-aminoethylsulfonyl)-3-(2-(methylamino)benzo[d]thiazol-4-yl)-2-(2H-tetrazol-5-yl)benzene sulfonamide] | 10.00 | 10.13 | 0.7813 | 1.563 | 1.563 | 0.7813 | 9.83 | 1.563 | 2.00 | – | – | –
5 | COc1ccc(Cc2cc3c(-c4ccc(S(=O)(=O)C5CNC5)c(S(N)(=O)=O)c4-c4nnn[nH]4)cccc3n2C)cc1 [Example 230, 6-(azetidin-3-ylsulfonyl)-3-(2-(4-methoxybenzyl)-1-methyl-1H-indol-4-yl)-2-(1H-tetrazol-5-yl)benzenesulfonamide] | 9.36 | 9.96 | 6.25 | 25 | 6.25 | 3.125 | 9.45 | 100 | 32.00 | – | – | –
6 | NCCS(=O)(=O)c1ccc(-c2cccc(C(=O)N[C@H]3CCNC3)c2N)c(-c2nn[nH]n2)c1S(N)(=O)=O [Example 376, (S)-2-Amino-4′-((2-aminoethyl)sulfonyl)-N-(pyrrolidin-3-yl)-3′-sulfamoyl-2′-(2H-tetrazol-5-yl)-[1,1′-biphenyl]-3-carboxamide] | 8.59 | 8.53 | – | – | – | 1.563 | 9.27 | 3.125 | 2.00 | 3.125 | 1.563 | 1.563
7 | NS(=O)(=O)c1c(S(=O)(=O)C2CNC2)ccc(-c2cccc3cccnc23)c1-c1nnn[nH]1.O=C(O)C(F)(F)F [Example 128, 3-((4-(quinolin-8-yl)-2-sulfamoyl-3-(1H-tetrazol-5-yl)phenyl)sulfonyl)azetidin-1-ium 2,2,2-trifluoroacetate] | 9.28 | 9.87 | 1.563 | 3.125 | 3.125 | 1.563 | 9.50 | 3.125 | 2.00 | – | – | –
8 | NCCS(=O)(=O)c1ccc(-c2ccnc3c2CCCC3)c(-c2nn[nH]n2)c1S(N)(=O)=O [Example 271, 6-(2-aminoethylsulfonyl)-3-(5,6,7,8-tetrahydroquinolin-4-yl)-2-(2H-tetrazol-5-yl)benzenesulfonamide] | 9.16 | 8.88 | – | – | – | 1.563 | 9.75 | 12.5 | 8.00 | 3.125 | 3.125 | 3.125
9 | NCCS(=O)(=O)c1ccc(-c2cccc(N3CCCC3=O)n2)c(-c2nnn[nH]2)c1S(N)(=O)=O.O=C(O)C(F)(F)F [Example 147, 2-((4-(6-(2-oxopyrrolidin-1-yl)pyridin-2-yl)-2-sulfamoyl-3-(1H-tetrazol-5-yl)phenyl)sulfonyl)ethanaminium 2,2,2-trifluoroacetate] | 8.39 | 8.51 | 6.25 | 6.25 | 6.25 | 1.563 | 9.28 | 100 | 63.98 | – | – | –
10 | N=C(N)c1nc2c(-c3ccc(S(=O)(=O)CCN)c(S(N)(=O)=O)c3-c3nn[nH]n3)cccc2s1 [Example 86, 4-(4-(2-aminoethylsulfonyl)-3-sulfamoyl-2-(2H-tetrazol-5-yl)phenyl)benzo[d]thiazole-2-carboximidamide] | 9.06 | 9.53 | 0.7813 | 0.7813 | 0.7813 | 0.3906 | 9.85 | 1.563 | 4.00 | – | – | –
11 | NS(=O)(=O)c1c(S(=O)(=O)C2CNC2)ccc(-c2csc(N3CCCC3)n2)c1-c1nnn[nH]1.O=C(O)C(F)(F)F [Example 120, 3-((4-(2-(pyrrolidin-1-yl)thiazol-4-yl)-2-sulfamoyl-3-(1H-tetrazol-5-yl)phenyl)sulfonyl)azetidin-1-ium 2,2,2-trifluoroacetate] | 9.26 | 9.12 | 3.125 | 6.25 | 3.125 | 1.563 | 8.85 | 25 | 15.99 | – | – | –
